Assay results reported in US20160367542A1, “NICOTINAMIDE DERIVATE IN THE TREATMENT OF ACUTE CORONARY SYNDROME” (GlaxoSmithKline LLC, priority 2012, published 2016).
Values after ≈ are worked out from the molar mass of the structure shown.

How the values were obtained:
[1] = system: in-vivo macrophage activity in the carotid arteries and aorta of subjects with established atherosclerosis; assay: In-vivo macrophage activity study, FDG-PET/CT imaging; parameters: species or system human; details: 84 days
Source text: Macrophage activity and presence are critical features to the vulnerability of plaque in the vasculature. The pivotal nature of p38 MAPK in signaling stress, and its presence in macrophages can be monitored by labeling glucose (fluorodeoxyglucose), an otherwise key nutrient for macrophage activity, and observing its uptake in macrophages using […]. […] The primary objective was to measure in-vivo macrophage activity, by fluorodeoxyglucose (FDG) positron emission tomography (PET)/computed tomography (CT) imaging, in carotid arteries and aorta following a 12-week treatment with losmapimod (7.5 mg once daily [QD] and 7.5 mg twice daily [BID]), in the setting of chronic statin therapy, as compared to placebo. Secondary objectives included safety and tolerability of 12 weeks of dosing with losmapimod (7.5 mg QD or 7.5 mg BID). Inflammatory biomarkers and the effect of losmapimod 7.5 mg QD vs 7.5 mg BID on in-vivo macrophage activity, as assessed by FDG-PET/CT imaging. Ninety-nine patients with vascular inflammation on statins were randomised to losmapimod 7.5 mg once daily (QD), twice daily (BID) or placebo for 84 days. Vascular inflammation was assessed by PET-CT imaging of the carotid arteries and aorta using ^18fluorodeoxyglucose (FDG); the artery with the highest average maximum tissue-to-background ratio (TBR) at baseline (TBR>1.6). […]

CRP and IL6 levels = assay: Inflammatory markers in subjects with myocardial infarction (Example 4 study); type: in vivo, human; details: oral 7.5 mg or 15 mg then 7.5 mg every 12 hours; average 4.5 day initial hospital stay, setting of stent placement
Protocol: (§1) In a randomised, double-blind, placebo controlled study, patients (n=approximately 500) who were admitted to a hospital with the diagnosis of acute coronary syndrome (specifically with non-ST elevation EKG findings upon entry) were provided an oral dose of losmapimod (7.5 mg or 15 mg and thereafter followed by 7.5 mg every 12 hours) or placebo for a period of 3 months.

[2] = system: hypercholerolesteric patients; details: Circulation. 2011;123:515-523; cited from earlier work
physchem = type: physicochemical
Source text: There is therefore a need for a liquid formulation of said compound that is suitable for this mode of administration which solves this technical problem.

[3] = system: patients with acute coronary syndrome (non-ST elevation); assay: Recurrent infarction, infarct size and cardiac function in subjects with myocardial infarction (Example 4 study); type: in vivo, human
Protocol: as §1

[4] = system: high sensitivity C-reactive protein; assay: Inflammatory biomarkers in the FDG-PET/CT study; type: in vivo, human; details: 7.5 mg BID versus placebo; 95% CI −46, −5; p=0.023
Protocol: The primary objective was to measure in-vivo macrophage activity, by fluorodeoxyglucose (FDG) positron emission tomography (PET)/computed tomography (CT) imaging, in carotid arteries and aorta following a 12-week treatment with losmapimod (7.5 mg once daily [QD] and 7.5 mg twice daily [BID]), in the setting of chronic statin therapy, as compared to placebo. Secondary objectives included safety and tolerability of 12 weeks of dosing with losmapimod (7.5 mg QD or 7.5 mg BID). Inflammatory biomarkers and the effect of losmapimod 7.5 mg QD vs 7.5 mg BID on in-vivo macrophage activity, as assessed by FDG-PET/CT imaging. Ninety-nine patients with vascular inflammation on statins were randomised to losmapimod 7.5 mg once daily (QD), twice daily (BID) or placebo for 84 days. Vascular inflammation was assessed by PET-CT imaging of the carotid arteries and aorta using ^18fluorodeoxyglucose (FDG); the artery with the highest average maximum tissue-to-background ratio (TBR) at baseline (TBR>1.6). 92% of the subjects were white, 86% male, the mean age was 63.8 years (SD 6.13). 72% were current or ex-smokers. […] All subjects were on a stable dose of statin for at least 3 months prior to the first dose and continued on this dose of statin throughout the study.

**Q.** With Cc1c(F)cc(C(=O)NC2CC2)cc1-c1ccc(C(=O)NCC(C)(C)C)cn1 [losmapimod, 6-(5-cyclopropylcarbamoyl-3-fluoro-2-methyl-phenyl)-N-(2,2-dimethylpropyl)-nicotinamide] as the compound, how does the “proportion of active slices (TBR≧1.6), change from baseline” value ([1]; 7.5 mg BID, placebo −6.1%, p=0.002, exploratory analysis) read?
**A.** −9.8%

**Q.** And the “change from baseline to day 84 in average maximum TBR (primary end point)” value ([1]; losmapimod versus placebo, patients on statins)?
**A.** not significantly different

**Q.** What about the “CRP level, lower with treatment compared to placebo” value (CRP and IL6 levels) of the same compound?
**A.** > 50%

**Q.** What about the “IL6 level, lower with treatment compared to placebo” value (CRP and IL6 levels) of the same compound?
**A.** > 50%

**Q.** And the “nitric oxide mediated vasodilatation” value [2]?
**A.** improves

**Q.** And the solubility (physchem)?
**A.** ~5 µg/mL (≈ 13 µM)

**Q.** What about the “size of the infarct by magnetic resonance image, lower versus placebo” value ([3]; MRI 4-5 days after the index infarct, smaller cohort n=approximately 90) of the same compound?
**A.** > 20%

**Q.** And the “BNP levels (surrogate for cardiac function), reduction” value ([3]; after 12 weeks of treatment)?
**A.** > 20%

**Q.** What about the “size of the index infarct by release of cardiac muscle enzymes” value ([3]; enzymes measured every 8 hours, treated versus placebo group) of the same compound?
**A.** unchanged

**Q.** What about the “three month MR imaging of cardiac function and dimensions” value ([3]; three months of treatment) of the same compound?
**A.** improved function and smaller overall cardiac dimensions

**Q.** What about the “number of recurrent myocardial infarctions (or episodes of ACS), lower with treatment compared to placebo” value ([3]; within the first few months beyond the index infarct, not statistically significant) of the same compound?
**A.** over 15%

**Q.** And the “high sensitivity C-reactive protein, reduction versus placebo” value [4]?
**A.** −28%
